Here are results for four compounds from ChEMBL document CHEMBL1201862, “PubChem BioAssay data set” (2004).

The source made the active and inactive calls. Where a SMILES comes first, the peptide text is derived from it. Bridges are numbered along the chain shown (N, C = ends). [ ]: non-standard residue; d: D form. The star is where a group is joined. bishTyr = N[C@@H](CCCc1ccc(O)cc1)C(=O)O; Tigloyl = C/C=C(\C)C(=O)*; Dhb = C/C=C(\N)C(=O)O

Test [1] in a line: Dd2 parasite growth inhibition in erythrocytes – SYBR Green, dry powder samples, set 9, dose response (AID 1159568). It counts as functional, cell-based.
A short description of test [2]: IGROV1 cell killing – plate reader, dry powder samples, PAX8 inhibitor project, dose response (AID 743043). It counts as functional, cell-based. To be noted: IGROV-1.
Test [3] can be described thus: general cell-killing toxicity readout – plate reader, dry powder samples, cytotoxicity control for PAX8 inhibitor project, dose response (AID 743021). Format: functional, cell-based.
The nature of test [4]: OVCAR-3 cell viability loss – plate reader, dry powder samples, PAX8 inhibitor project, dose response (AID 743044). It counts as functional, cell-based.
Another test addresses Paired box protein Pax-8 (Homo sapiens, UniProt Q06710). As to the kind of experiment: PAX8 transcriptional activity inhibition in RMG-I – RMG-I cells, luciferase, cherry-pick, dose response (AID 687027).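 Also: luciferase reporter driven by Pax8 target thyroperoxidase promoter measured by SteadyGlo luminescence.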 Format: functional, cell-based.
For test [5], the target named is NAD-dependent protein deacylase sirtuin-5, mitochondrial (Homo sapiens, UniProt Q9NXA8). Kind of test: sirtuin-5 deacylation blockers, concentration series – biochemical, fluorescence imaging, cherry-pick, set 5, dose response (AID 720591).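 Also: desuccinylation of succinyl peptide AMC substrate read as fluorescence after trypsin release; potency of inhibitors that lower fluorescence and may act on trypsin instead.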
Chain of NAD-dependent protein deacylase sirtuin-5, mitochondrial (Q9NXA8 whole entry, the tested form may be a part): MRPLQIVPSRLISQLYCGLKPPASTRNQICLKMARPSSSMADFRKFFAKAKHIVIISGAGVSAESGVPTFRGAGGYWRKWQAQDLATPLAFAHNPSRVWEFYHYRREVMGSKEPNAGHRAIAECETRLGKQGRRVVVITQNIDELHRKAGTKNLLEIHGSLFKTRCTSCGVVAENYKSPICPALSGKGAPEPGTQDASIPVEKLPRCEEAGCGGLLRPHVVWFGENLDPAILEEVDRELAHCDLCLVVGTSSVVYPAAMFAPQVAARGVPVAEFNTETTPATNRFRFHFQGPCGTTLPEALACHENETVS
In test [6] the target is Oxysterols receptor LXR-beta (Homo sapiens, UniProt P55055). Kind of test: LXR agonists, Gal4 luciferase reporter, dose response, counter-screen for ssDAF-12 agonist project, cell-based, luminescence, HEK293, S. stercoralis campaign (AID 720737). Format: functional. Particulars: read-out: IC50 (the source's name). A general note: Reporter assays use an easily measured gene product as a stand-in for the process of interest.
Chain of Oxysterols receptor LXR-beta (P55055 whole entry, the tested form may be a part): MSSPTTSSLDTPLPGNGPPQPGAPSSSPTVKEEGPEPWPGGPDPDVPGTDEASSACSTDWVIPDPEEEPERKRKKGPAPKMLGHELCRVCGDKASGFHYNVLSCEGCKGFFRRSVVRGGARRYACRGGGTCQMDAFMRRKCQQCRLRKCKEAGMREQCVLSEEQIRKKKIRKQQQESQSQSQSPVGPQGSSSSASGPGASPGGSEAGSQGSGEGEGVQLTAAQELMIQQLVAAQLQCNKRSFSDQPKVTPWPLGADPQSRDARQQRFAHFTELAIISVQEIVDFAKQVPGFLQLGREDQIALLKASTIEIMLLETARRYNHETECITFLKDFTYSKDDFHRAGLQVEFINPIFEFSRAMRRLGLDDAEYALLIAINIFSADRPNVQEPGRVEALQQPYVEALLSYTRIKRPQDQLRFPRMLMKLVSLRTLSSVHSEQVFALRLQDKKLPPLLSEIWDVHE

Test [7] is described as follows: Luminescence-based cell-based high throughput dose response assay to identify activators of the DAF-12 from the parasite S. stercoralis (ssDAF-12). It counts as functional.

Chain of Paired box protein Pax-8 (Q06710 whole entry): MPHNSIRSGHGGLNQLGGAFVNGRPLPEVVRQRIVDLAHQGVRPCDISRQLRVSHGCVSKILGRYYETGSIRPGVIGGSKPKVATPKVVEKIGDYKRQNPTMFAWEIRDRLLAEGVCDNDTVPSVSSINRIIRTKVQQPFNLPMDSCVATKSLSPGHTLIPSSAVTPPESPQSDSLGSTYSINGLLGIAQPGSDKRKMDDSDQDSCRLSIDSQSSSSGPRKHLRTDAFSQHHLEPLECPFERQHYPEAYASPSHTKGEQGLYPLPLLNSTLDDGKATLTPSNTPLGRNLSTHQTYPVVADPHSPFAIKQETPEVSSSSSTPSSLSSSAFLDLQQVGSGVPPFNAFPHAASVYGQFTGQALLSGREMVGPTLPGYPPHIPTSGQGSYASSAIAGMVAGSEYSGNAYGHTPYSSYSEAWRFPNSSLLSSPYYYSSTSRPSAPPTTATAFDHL

With `C[C@@H]1CCCCO[C@H](CN(C)S(=O)(=O)c2ccccc2)[C@@H](C)CN([C@H](C)CO)C(=O)c2cc(NC(=O)Nc3ccc4c(c3)OCO4)ccc2O1`, the AC50 (commonly the concentration giving half of the maximal activity seen) in test [1] is 8.49 µM (active).

Regarding `C[C@@H]1CN([C@@H](C)CO)C(=O)Cc2cc(NS(=O)(=O)c3ccc(Cl)cc3)ccc2O[C@@H]1CN(C)CC1CCCCC1`, the AC50 is 46.2 µM (active) in test [2], 41.9 µM (active) in test [3], 21.2 µM (active) in test [4] and 11.7 µM (active) on Paired box protein Pax-8.

For the compound `C/C=C1\NC(=O)[C@H](C)NC(=O)[C@@H](NC(=O)[C@H](Cc2ccc(O)cc2)NC(=O)[C@@H](NC(=O)/C(C)=C/C)C(C)C)[C@@H](C)OC(=O)[C@H](CCCc2ccc(O)cc2)NC(=O)[C@@H](CCC(=O)O)NC1=O` (Tigloyl-VYTA[Dhb][dE][bishTyr]; ester 3-C), the AC50 in test [5] is 12.6 µM (active).

Turning to `COCCNC(=O)Cn1nc(-c2ccc(Cl)cc2)c2ccccc2c1=O`, the EC50 in test [6] is > 67.5 µM (inactive). The IC50 (commonly the concentration needed to halve the response being measured) in test [7] was > 67.5 µM (inactive).
